In US20120165304A1, “6,7,8,9-Tetrahydro-5H-1,4,7,10a-tetraaza-cyclohept[f]indene derivatives, pharmaceutical compositions containing these compounds, their use and processes for preparing them” (BOEHRINGER INGELHEIM INTERNATIONAL GMBH, priority 2008, published 2012):

Target: human 5-HT2C receptor (Homo sapiens, UniProt P28335, I156V/I160V/N158S)
Assay: cell-based

Chain of human 5-HT2C receptor (P28335 33-458 I156V/N158S/I160V limits assumed): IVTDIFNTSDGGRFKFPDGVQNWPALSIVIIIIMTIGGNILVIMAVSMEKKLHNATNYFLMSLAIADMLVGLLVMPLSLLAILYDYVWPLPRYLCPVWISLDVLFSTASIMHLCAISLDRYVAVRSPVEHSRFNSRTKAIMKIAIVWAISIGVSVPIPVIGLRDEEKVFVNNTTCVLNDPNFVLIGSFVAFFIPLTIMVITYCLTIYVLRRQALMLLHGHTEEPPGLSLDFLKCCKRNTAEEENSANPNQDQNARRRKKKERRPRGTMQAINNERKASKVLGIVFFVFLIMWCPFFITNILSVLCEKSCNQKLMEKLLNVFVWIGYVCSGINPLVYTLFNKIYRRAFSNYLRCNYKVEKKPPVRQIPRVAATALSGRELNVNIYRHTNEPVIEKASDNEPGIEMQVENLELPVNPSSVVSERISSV

`c1ccc(CCc2cnn3c(N4CCC4)c4c(nc23)CCNCC4)nc1` [Example 6, 10-Azetidin-1-yl-3-(2-pyridin-2-yl-ethyl)-6,7,8,9-tetrahydro-5H-1,4,7,10a-tetraaza-cyclohepta[f]indene] gave an EC50 of 156 nM.

Compound `Brc1ccccc1OC1CN(c2c3c(nc4ccnn24)CCNCC3)C1` [Example 35.7] has an EC50 of 67 nM.

For `CS(=O)(=O)N1CCN(C(=O)C2CN(c3c4c(nc5ccnn35)CCNCC4)C2)CC1` [Example 37.45], the EC50 was 2 nM.

`Brc1cccc(OC2CN(c3c4c(nc5ccnn35)CCNCC4)C2)c1` [Example 35.14] gave an EC50 of 477 nM.

`CN(Cc1ccc(Cl)c(Cl)c1)C(=O)C1CN(c2c3c(nc4ccnn24)CCNCC3)C1` [Example 31.81] was tested, and the EC50 was 33 nM.

In the case of `O=C(C1CN(c2c3c(nc4ccnn24)CCNCC3)C1)N1CCC2(CCCc3ccccc32)C1` (stereo not drawn) [Example 31.222], the EC50 is reported as 96 nM.

Work on `CN1CCc2nc3ccnn3c(N3CC(C(=O)NCCCC(F)(F)F)C3)c2CC1` [Example 36.47] yielded an EC50 of 130 nM.

`COc1cc(C)cc(OCC2CN(c3c4c(nc5ccnn35)CCNCC4)C2)c1` [Example 15.22] was tested, and the EC50 was 141 nM.

Work on `O=C(C1CN(c2c3c(nc4ccnn24)CCNCC3)C1)N1CCCCCC1` [Example 31.142] yielded an EC50 of 186 nM.

With `O=C(C1CN(c2c3c(nc4ccnn24)CCNCC3)C1)N1CCC(c2ccc(F)cc2F)CC1` [Example 31.114] the EC50 was 38 nM.

Compound `O=C(C1CCCN(c2c3c(nc4ccnn24)CCNCC3)C1)N1CCC(C2CCCCC2)CC1` (stereo not drawn) [Example 1.58] has an EC50 of 4710 nM.

`CN(Cc1ccc(Cl)cc1Cl)C(=O)C1CN(c2c3c(nc4ccnn24)CCNCC3)C1` [Example 31.164] was tested, and the EC50 was 111 nM.

Work on `CC1(C)CC1CNC(=O)C1CN(c2c3c(nc4ccnn24)CCNCC3)C1` (stereo not drawn) [Example 37.110] yielded an EC50 of 255 nM.

`CC(=O)N(C)C1CCN(C(=O)C2CN(c3c4c(nc5ccnn35)CCNCC4)C2)CC1` [Example 37.30] was tested, and the EC50 was 8 nM.

With `c1cc2nc3c(c(N4CCCCC4)n2n1)CCNCC3` [Example 7.2] the EC50 was 4560 nM.

For `Cc1cccc2c1N(C(=O)C1CN(c3c4c(nc5ccnn35)CCNCC4)C1)CC2` [Example 31.174], the EC50 was 116 nM.

Work on `CC#CCNC(=O)C1CN(c2c3c(nc4ccnn24)CCNCC3)C1` [Example 37.105] yielded an EC50 of 139 nM.

In the case of `COC[C@@H]1CCCN1c1c2c(nc3ccnn13)CCNCC2` [Example 1.11], the EC50 is reported as 504 nM.

`CN(C)C1CCN(C(=O)C2CN(c3c4c(nc5ccnn35)CCNCC4)C2)CC1` [Example 37.2] was tested, and the EC50 was 1 nM.

In the case of `Cc1cccc2[nH]c(C3CN(c4c5c(nc6ccnn46)CCNCC5)C3)nc12` [Example 34.5], the EC50 is reported as 246 nM.

In the case of `O=C(C1CCCC1)N1CCN(C(=O)C2CN(c3c4c(nc5ccnn35)CCNCC4)C2)CC1` [Example 37.87], the EC50 is reported as 9 nM.

With `O=C(C1CN(c2c3c(nc4ccnn24)CCNCC3)C1)N1CCCC2(CCc3ccccc32)C1` (stereo not drawn) [Example 31.173] the EC50 was 440 nM.

`O=C(C1CN(c2c3c(nc4ccnn24)CCNCC3)C1)N1CCC2(CCC2)C1` [Example 31.56] gave an EC50 of 43 nM.

Compound `CC1(C)CCN(C(=O)C2CN(c3c4c(nc5ccnn35)CCNCC4)C2)C1` [Example 31.53] has an EC50 of 8 nM.

For `C[C@@H]1C[C@H](C)CN(C(=O)C2CN(c3c4c(nc5ccnn35)CCN(C)CC4)C2)C1` [Example 36.15], the EC50 was 154 nM.

Work on `CN(C(=O)C1CN(c2c3c(nc4ccnn24)CCNCC3)C1)C1CCCc2ccccc21` (stereo not drawn) [Example 31.171] yielded an EC50 of 967 nM.

Work on `c1ccc2c(c1)OCCN2c1c2c(nc3ccnn13)CCNCC2` [Example 1.39] yielded an EC50 of 2580 nM.

`Fc1ccc(OC2CN(c3c4c(nc5ccnn35)CCNCC4)C2)cc1F` [Example 35.55] showed an EC50 of 115 nM.

Compound `COC[C@H]1CCCN1c1c2c(nc3ccnn13)CCNCC2` [Example 1.12] has an EC50 of 507 nM.

In the case of `O=C(C1CN(c2c3c(nc4ccnn24)CCNCC3)C1)N1CC=CC1` [Example 31.183], the EC50 is reported as 308 nM.

With `COc1ccccc1OC1CN(c2c3c(nc4ccnn24)CCNCC3)C1` [Example 35.54] the EC50 was 85 nM.

With `O=C(C1CN(c2c3c(nc4ccnn24)CCNCC3)C1)N1CC[C@@H]2CCCC[C@@H]2C1` [Example 31.131] the EC50 was 74 nM.

In the case of `O=C(C1CN(c2c3c(nc4ccnn24)CCNCC3)C1)N1CCCC(C2CCCCC2)C1` (stereo not drawn) [Example 31.70], the EC50 is reported as 175 nM.

`CCN(Cc1ccccc1)C(=O)C1CN(c2c3c(nc4ccnn24)CCNCC3)C1` [Example 31.23] gave an EC50 of 346 nM.

`Cc1cccc(OC2CN(c3c4c(nc5ccnn35)CCNCC4)C2)c1` [Example 35.51] was tested, and the EC50 was 126 nM.

Work on `O=C(C1CN(c2c3c(nc4ccnn24)CCNCC3)C1)N1CC=C(c2ccccc2)CC1` [Example 31.181] yielded an EC50 of 84 nM.

`CC(C)NC1CCN(C(=O)C2CN(c3c4c(nc5ccnn35)CCNCC4)C2)CC1` [Example 37.21] gave an EC50 of 2 nM.

`O=C(C1CN(c2c3c(nc4c(Br)cnn24)CCNCC3)C1)N1CCC2(CCCCC2)CC1` [Example 31.132] gave an EC50 of 254 nM.

Work on `O=C(C1CN(c2c3c(nc4ccnn24)CCNCC3)C1)N1CCC2(CCCCC2)C1` [Example 31.48] yielded an EC50 of 38 nM.

Compound `c1nn2c(N3CCC3)c3c(nc2c1CCC1CC1)CCNCC3` [Example 6.1] has an EC50 of 365 nM.

`CN(C)C(=O)[C@@H]1CCN(c2c3c(nc4ccnn24)CCNCC3)C1` [Example 1.62] showed an EC50 of 2070 nM.

Compound `O=C(C1CN(c2c3c(nc4ccnn24)CCNCC3)C1)N1CC[C@@H](F)C1` [Example 31.205] has an EC50 of 116 nM.

For `Cc1cnn2c(N3CC(C(=O)N4CCC(C(F)(F)F)CC4)C3)c3c(nc12)CCNCC3` [Example 31.237], the EC50 was 11 nM.

With `CCC(CC)CNC(=O)C1CN(c2c3c(nc4ccnn24)CCNCC3)C1` [Example 37.88] the EC50 was 36 nM.

`CC(C)(C)CCNC(=O)C1CN(c2c3c(nc4ccnn24)CCNCC3)C1` [Example 37.83] was tested, and the EC50 was 51 nM.

Work on `C[C@H](c1ccccc1)N(C)C(=O)C1CN(c2c3c(nc4ccnn24)CCNCC3)C1` [Example 31.90] yielded an EC50 of 465 nM.

Compound `O=C(C1CN(c2c3c(nc4ccnn24)CCNCC3)C1)N1CCC(OCc2ccccc2)CC1` [Example 31.199] has an EC50 of 48 nM.

In the case of `COc1ccccc1CN(C)C(=O)C1CN(c2c3c(nc4ccnn24)CCNCC3)C1` [Example 31.51], the EC50 is reported as 85 nM.

With `CN1CCc2nc3ccnn3c(N3CC(C(=O)N4CCC5(CCC5)C4)C3)c2CC1` [Example 36.34] the EC50 was 885 nM.

In the case of `Cc1cccc(C2CCN(C(=O)C3CN(c4c5c(nc6ccnn46)CCNCC5)C3)CC2)c1` [Example 31.167], the EC50 is reported as 101 nM.

`COc1ccc(CN(C)C(=O)C2CN(c3c4c(nc5ccnn35)CCNCC4)C2)cc1` [Example 31.26] gave an EC50 of 29 nM.

`CN1CCC2(CCN(c3c4c(nc5ccnn35)CCNCC4)CC2)C1=O` [Example 1.66] showed an EC50 of 1660 nM.

Compound `O=C(C1CN(c2c3c(nc4ccnn24)CCNCC3)C1)N1CCC(c2ccc(C(F)(F)F)cc2)CC1` [Example 31.109] has an EC50 of 83 nM.

For `O=C(C1CN(c2c3c(nc4ccnn24)CCNCC3)C1)N1CCc2c1ccc(F)c2F` [Example 31.155], the EC50 was 52 nM.

`O=C(C1CN(c2c3c(nc4ccnn24)CCNCC3)C1)N1CCC2(CC1)Oc1ccccc1O2` [Example 31.186] gave an EC50 of 68 nM.

With `O=C(C1CN(c2c3c(nc4c(Br)cnn24)CCNCC3)C1)N1CCC2(CCOC2)CC1` [Example 31.137] the EC50 was 71 nM.

Work on `Cn1c(C2CN(c3c4c(nc5ccnn35)CCNCC4)C2)nc2ccc(Cl)cc21` [Example 34.6] yielded an EC50 of 65 nM.

`Cc1csc(C2CN(c3c4c(nc5ccnn35)CCNCC4)C2)n1` [Example 11, 10-[3-(4-Methyl-thiazol-2-yl)-azetidin-1-yl]-6,7,8,9-tetrahydro-5H-1,4,7,10a-tetraaza-cyclohepta[f]indene] showed an EC50 of 161 nM.

With `CN(CCc1cccc(C(F)(F)F)c1)C(=O)C1CN(c2c3c(nc4ccnn24)CCNCC3)C1` [Example 31.89] the EC50 was 133 nM.

`CN1CCc2nc3ccnn3c(N3CC(C(=O)NC4CC5CCC(C4)N5C)C3)c2CC1` (stereo not drawn) [Example 36.10] was tested, and the EC50 was 374 nM.

For `CN(C)CCN(C)C(=O)C1CN(c2c3c(nc4ccnn24)CCN(C)CC3)C1` [Example 36.2], the EC50 was 563 nM.

`COc1ccc(OC2CN(c3c4c(nc5ccnn35)CCNCC4)C2)cc1` [Example 1.10] was tested, and the EC50 was 96 nM.

For `CN(C(=O)C1CN(c2c3c(nc4ccnn24)CCNCC3)C1)C1CC1` [Example 31.10], the EC50 was 1670 nM.

Compound `O=C(CC1CN(c2c3c(nc4ccnn24)CCNCC3)C1)N1CCc2cc(F)ccc21` [Example 33.2] has an EC50 of 20 nM.

`CC(=O)N(C)c1ccc(OC2CN(c3c4c(nc5ccnn35)CCNCC4)C2)cc1` [Example 35.28] showed an EC50 of 189 nM.

Work on `O=C(C1CN(c2c3c(nc4ccnn24)CCNCC3)C1)N1CCC(CCc2ccccc2)C1` (stereo not drawn) [Example 31.99] yielded an EC50 of 64 nM.

With `Cc1cnn2c(N3CC(C(=O)N4CCc5c(cccc5C(F)(F)F)C4)C3)c3c(nc12)CCNCC3` [Example 31.239] the EC50 was 80 nM.

Work on `O=C(C1CN(c2c3c(nc4ccnn24)CCNCC3)C1)N1CCc2c(cccc2C(F)(F)F)C1` [Example 31.102] yielded an EC50 of 36 nM.

With `COC1CN(c2c3c(nc4ccnn24)CCNCC3)C1` [Example 16.1] the EC50 was 82 nM.

For `CC1CNCCc2c1nc1ccnn1c2N1CCC1` (stereo not drawn) [Example 3.1], the EC50 was 3 nM.

Compound `Cn1c(=O)ccc2c(OC3CN(c4c5c(nc6ccnn46)CCNCC5)C3)cccc21` [Example 35.1] has an EC50 of 41 nM.

Work on `N#Cc1cccc(OC2CN(c3c4c(nc5ccnn35)CCNCC4)C2)c1` [Example 35.4] yielded an EC50 of 81 nM.

`CC(C)C1CCN(C(=O)C2CN(c3c4c(nc5ccnn35)CCN(C)CC4)C2)CC1` [Example 36.20] was tested, and the EC50 was 63 nM.

In the case of `O=C(C1CN(c2c3c(nc4ccnn24)CCNCC3)C1)N1CCC(Oc2ccc(F)c(F)c2)CC1` [Example 31.146], the EC50 is reported as 91 nM.

Work on `C[C@@H]1CN(C(=O)C2CN(c3c4c(nc5ccnn35)CCNCC4)C2)C[C@H](C)O1` [Example 31.42] yielded an EC50 of 37 nM.

Work on `COc1ccc2c(c1)CCN2C(=O)CC1CN(c2c3c(nc4ccnn24)CCNCC3)C1` [Example 33.3] yielded an EC50 of 12 nM.

For `O=C(C1CN(c2c3c(nc4ccnn24)CCNCC3)C1)N1CCCC(c2ccccc2)(c2ccccc2)C1` [Example 31.221], the EC50 was 625 nM.

For `O=C(C1CN(c2c3c(nc4ccnn24)CCNCC3)C1)N1CCC(Nc2ccccc2)CC1` [Example 37.43], the EC50 was 6 nM.

`Cc1ccccc1OC1CN(c2c3c(nc4ccnn24)CCNCC3)C1` [Example 35.5] was tested, and the EC50 was 112 nM.

In the case of `C=C1CCN(C(=O)C2CN(c3c4c(nc5ccnn35)CCNCC4)C2)CC1` [Example 31.229], the EC50 is reported as 108 nM.

For `CNC(=O)C1CN(c2c3c(nc4ccnn24)CCNCC3)C1` [Example 9.1], the EC50 was 818 nM.
